Drawing on PubChem BioAssay AID463203 (Broad Institute, 2010), this text covers AC50 for 91 compounds.

Structures are written as SMILES. Active and inactive are the calls of the source.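 How the source made its calls: active means more than half of replicate measurements showing over 20% loss of kinase signal relative to plate controls; inconclusive means some but at most half of replicates over 20% loss; inactive means no replicate over 20% signal loss.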

For the experiment, the target named is Glycogen synthase kinase-3 alpha (Homo sapiens) (UniProt P49840). The experiment can be described thus: concentration-response blocking of human GSK3A – biochemical, luminescence, cell-free homogeneous, retest, dose response (AID 463203). To be noted: GSK-3 alpha enzyme, ADP-Glo luminescence, 60 min. For orientation: ADP-Glo first removes unused ATP, then detects ADP through luciferase.
Sequence of Glycogen synthase kinase-3 alpha (Homo sapiens) (P49840 whole entry, looked up): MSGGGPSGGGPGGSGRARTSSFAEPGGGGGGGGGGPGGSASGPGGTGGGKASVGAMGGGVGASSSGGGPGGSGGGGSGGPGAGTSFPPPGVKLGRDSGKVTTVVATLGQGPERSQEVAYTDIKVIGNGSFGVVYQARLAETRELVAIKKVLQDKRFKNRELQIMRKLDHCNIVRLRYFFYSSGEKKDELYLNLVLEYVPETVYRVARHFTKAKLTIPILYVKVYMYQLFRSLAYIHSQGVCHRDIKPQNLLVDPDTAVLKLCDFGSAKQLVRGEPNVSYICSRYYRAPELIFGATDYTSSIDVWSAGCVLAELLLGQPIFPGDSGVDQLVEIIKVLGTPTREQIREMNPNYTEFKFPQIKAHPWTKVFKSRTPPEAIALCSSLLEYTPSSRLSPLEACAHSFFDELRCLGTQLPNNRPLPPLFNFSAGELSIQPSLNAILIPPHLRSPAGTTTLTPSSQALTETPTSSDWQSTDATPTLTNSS

The AC50 is the midpoint of the concentration-response curve, whichever way the signal moves. Consider `O=C(NC1=NCCS1)c1ccc(Cl)cc1`, for which the AC50 was > 30 µM (inactive).
For `C/C(CC(=O)N(C(C)C)C(C)C)=N\NC(=O)COc1ccc(Cl)cc1Cl` the value was > 30 µM (inactive); for `N#CC1=C(S)N(c2ccccc2)C(c2ccco2)NC1=O` (stereo unspecified), > 30 µM (inactive).
For `CCOC(=O)N1CCC(N2CCN(S(=O)(=O)c3ccc([N+](=O)[O-])cc3)CC2)CC1` the value was > 30 µM (inactive).
In the case of `O=[N+]([O-])c1cnccc1NC1CCCCC1` it was > 30 µM (inactive); in that of `COc1cccc(-n2c(SCC(N)=O)nnc2-c2ccco2)c1`, > 30 µM (inactive).
As for `O=C(CSc1nc2ccccc2c(=O)n1-c1ccc(F)cc1F)c1c[nH]c2ccccc12`, the AC50 was > 30 µM (inactive).
As for `COc1ccc(NC(=O)CN(C)S(=O)(=O)c2cnc[nH]2)cc1`, the AC50 was > 30 µM (inactive).
In the case of `O=C(CSc1nc2[nH]ncc2c(=O)n1-c1ccccc1Br)NCc1ccccc1Cl` it was > 30 µM (inactive); in that of `Cc1ccc(/C=N/NC(=O)c2nnn(-c3nonc3N)c2CN(C)C)s1`, > 30 µM (inactive).
For `CCOC(=O)c1nnn(-c2nonc2N)c1-c1ccc(Br)cc1` the value was 12.4 µM.
In the case of `COc1ccc(NC(=O)c2ccc(NCC3CCCO3)c([N+](=O)[O-])c2)cc1` (stereo unspecified) it was > 30 µM (inactive); in that of `O=C(Nc1ccccc1)c1cc(-n2cnnc2)ccc1Cl`, > 30 µM (inactive); in that of `CC(=O)c1cc(-c2ccc(F)cc2)n(CCC(=O)Nc2cccnc2)c1C`, > 30 µM (inactive).
As to `CCOc1ccc2nnc(-c3ccc(Br)cc3)n2n1`, the AC50 is > 30 µM (inactive).
`O=c1[nH]c(=O)n(C2CCCCCC2)c(O)c1C=NCCCN1CCOCC1`: the AC50 was 14.4 µM.
In the case of `COC(=O)/C=C1/S/C(=N/NC(=O)c2ccccc2OC)NC1=O` it was > 30 µM (inactive); in that of `COc1ccc(C2=Nn3c(nnc3-c3ccncc3)SC2)cc1OC`, 2.37 µM.
Take `Cc1ccnc(NC(=O)CCC(=O)N(CC(=O)NCc2ccccc2)Cc2ccccc2)c1`: the half-maximal activity concentration (AC50) is 15.1 µM.
In the case of `COc1ccccc1-c1noc(CSc2nc(C)cc(=O)[nH]2)n1` it was > 30 µM (inactive).
In the case of `CCOC(=O)Cc1csc(NC(=O)C2CCCN(S(=O)(=O)c3cnc[nH]3)C2)n1` (stereo unspecified) it was > 30 µM (inactive); in that of `CCOC(=O)C1CCN(c2c(C(=O)c3ccccc3)cnc3ccc(Cl)cc23)CC1`, > 30 µM (inactive).
In the case of `CC(/C=N/NC(=O)c1nnn(-c2nonc2N)c1C(C)C)=C\c1ccccc1` it was > 30 µM (inactive); in that of `O=C1NC(=Nc2ccccc2Cl)S/C1=C\c1cccc([N+](=O)[O-])c1O`, 24 µM.
In the case of `Cc1nc(NCC2CCCO2)nc2c1C(=O)CC(C)C2` (stereo unspecified), the AC50 was > 30 µM (inactive).
In the case of `O=S(=O)(O)c1ccc(N=Nc2ccccc2)cc1` it was > 30 µM (inactive); in that of `Oc1ccc2c(c1)oc1cc(O)ccc12`, 12 µM; in that of `COC(=O)Nc1nnc(COc2ccccc2)s1`, > 30 µM (inactive).
In the case of `O=C(/C(=N/N=C/c1ccc(O)c(O)c1)c1ccccc1)c1ccccc1` it was > 30 µM (inactive); in that of `Cc1ccc2nc(-c3cccc(N)c3)[nH]c2c1`, > 30 µM (inactive); in that of `Cc1ccc2nc(-c3ccncc3)[nH]c2c1`, > 30 µM (inactive).
On to `O=C(c1ccc2c3n(nc2c1)-c1ccc(Cl)cc1CO3)N1CCOCC1`, for which the AC50 was > 30 µM (inactive).
For `N#CC1=C2SCN(Cc3ccco3)CN2C(=O)CC1c1ccc(Cl)cc1` (stereo unspecified) the value was > 30 µM (inactive); for `CCOC(=O)c1c(NC(=O)CN2C(=O)NC3(CCCCC3C)C2=O)sc(C(=O)N(C)C)c1C` (stereo unspecified), > 30 µM (inactive).
In the case of `Cc1ccc(C(=O)N/C(=C\c2ccc(-c3ccc(Cl)cc3)o2)C(=O)NCCCN(C)C)cc1` it was > 30 µM (inactive); in that of `Cn1cc([N+](=O)[O-])c(C(=O)Nc2cnn(Cc3ccc(F)cc3)c2)n1`, > 30 µM (inactive); in that of `COc1ccc(-c2noc(CCC(=O)Nc3nc4ccccc4s3)n2)cc1`, > 30 µM (inactive).
For `CCOc1cc2c(C#N)c(N3CCCC3)nc(N)c2c(N)n1` the value was > 30 µM (inactive); for `COc1cc(NC(=O)c2nnn(Cc3ccc(SC)cc3)c2N)cc(OC)c1`, 13.6 µM; for `O=S(=O)(c1ccc(Cl)nc1)N1CCN(Cc2ccc3c(c2)OCO3)CC1`, > 30 µM (inactive).
Turning to `COc1cccc(C2C3(C#N)C(N)=NC(OC)(OC)C23C#N)c1` (stereo unspecified), the AC50 is > 30 µM (inactive).
For the compound `COc1ccc(C2NC(=O)NC(C)=C2C(=O)OCc2ccc3c(c2)OCO3)cc1OC` (stereo unspecified), the AC50 is 10.2 µM.
Consider `CCOC(=O)c1sc(NC(=O)C2CC2)nc1C`, for which the AC50 was 15 µM.
On to `COC(=O)c1cn(C(=O)c2ccccc2F)nc1N`, for which the AC50 is > 30 µM (inactive).
For `O=S(=O)(c1cccs1)N1CCN(c2ccnc3cc(Cl)ccc23)CC1` the value was > 30 µM (inactive); for `NC1=NC(=O)/C(=C/c2cccs2)S1`, > 30 µM (inactive); for `COC(=O)c1cc(O)c(OCc2ccccc2)c(O)c1`, > 30 µM (inactive).
In the case of `Clc1ccc(-c2noc(COc3ccccc3)n2)cc1` it was > 30 µM (inactive); in that of `COc1cccc(/C=N/NC(=O)COc2cccc3cccnc23)c1O`, > 30 µM (inactive).
Consider `COc1ccc(OC)c(/C=C2\Oc3cc(OCC(=O)N4CCC[C@H]4C(=O)O)ccc3C2=O)c1`, for which the AC50 is > 30 µM (inactive).
`CN1/C(=C\C=C2/SC(=S)NC2=O)C(C)(C)c2ccccc21`: the half-maximal activity concentration (AC50) is 12.7 µM.
In the case of `COc1ccc(CNc2ccc3cn[nH]c3c2)c(OC)c1OC` it was 19.8 µM; in that of `O=C(CSc1ccc(F)cc1)Nc1ccc2c(c1)C(=O)NC2=O`, 12.5 µM.
For `CC(C)NC(=O)Nc1cccc(Cl)c1` the value was > 30 µM (inactive); for `COc1cc2c(cc1OC)-c1c3c(cc4c1[C@@H](C2)N(C)CC4)OCO3`, 24.9 µM.
Regarding `O=C1c2cnc3ncnn3c2CC2c3ccccc3CCN12` (stereo unspecified), the AC50 is > 30 µM (inactive).
In the case of `CSc1nc2sc3c(c2c(=O)[nH]1)CCC(C)C3` (stereo unspecified) it was > 30 µM (inactive); in that of `O=C(COC(=O)Cc1ccc(F)cc1)Nc1ccc(Cl)cn1`, 14.1 µM; in that of `COc1cc(C(=O)NCC(=O)N/N=C(C)\C=C\c2ccccc2)cc(OC)c1OC`, > 30 µM (inactive).
For `CC(C)(C)C(=O)c1cnc(Nc2ccccc2Cl)s1` the value was > 30 µM (inactive); for `COc1ccc(C2=Nn3c(nnc3-c3ccccc3)SC2)cc1OC`, > 30 µM (inactive); for `COc1ccc(NC(=O)CNc2cccc(S(=O)(=O)N3CCCCCC3)c2)c([N+](=O)[O-])c1`, > 30 µM (inactive).
For `O=C1C(SCCO)=C(SCCO)C(=O)c2ccccc21` the value was > 30 µM (inactive); for `COC(=O)c1oc2ccc(Br)cc2c1NC(=O)c1ccccc1`, > 30 µM (inactive); for `O=C(Nc1sc2c(c1C(=O)N1CCOCC1)CCCCC2)c1cccnc1`, > 30 µM (inactive).
As for `O=C(NCCCN1CCOCC1)c1cc(Cl)ccc1[N+](=O)[O-]`, the AC50 was > 30 µM (inactive).
In the case of `N#CC1=C2SCN(c3ccccc3)CN2C(=O)CC1c1ccccc1Cl` (stereo unspecified) it was > 30 µM (inactive).
In the case of `COCCCNc1ncnc2nc[nH]c12`, the AC50 is > 30 µM (inactive).
In the case of `Cc1ccc(N(Cc2ccc([N+](=O)[O-])cc2)C(=O)c2ccco2)cc1C` it was > 30 µM (inactive).
In the case of `C=CCNC(=S)N1CCN(c2cccc(C(F)(F)F)c2)CC1` it was > 30 µM (inactive); in that of `COCc1nnc(NC(=O)CCCCCN2C(=O)c3ccccc3C2=O)s1`, > 30 µM (inactive).
For `Cc1nc(Nc2ccc(S(N)(=O)=O)cc2)oc1C` the value was > 30 µM (inactive); for `CCc1nnc(NC(=O)CCN2C(=O)c3ccccc3C2=O)s1`, > 30 µM (inactive).
As for `COc1cccc(CN2CCN(Cc3cc(OC)c(OC)cc3[N+](=O)[O-])CC2)c1`, the AC50 is > 30 µM (inactive).
In the case of `CC(C)=CCc1c(O)cc(O)c2c(=O)c(O[C@@H]3O[C@@H](C)[C@H](O)[C@@H](O)[C@H]3O)c(-c3ccc(O)cc3)oc12` it was 19.6 µM; in that of `CC1(C)Cc2nc3sc4c(SCC(=O)O)ncnc4c3cc2CO1`, 6.18 µM; in that of `COc1cccc(OCc2cc(C(=O)NCc3ccc4c(c3)OCO4)no2)c1`, > 30 µM (inactive).
In the case of `CCOc1ccc(-c2nc(N)ncc2-c2ccccc2)c(O)c1` it was 20.7 µM.
For `COc1cccc(C(=O)NCC(=O)OCC(=O)c2ccccc2)c1` the value was > 30 µM (inactive); for `O=c1cc(-c2ccco2)oc2c1ccc1ccccc12`, 7.17 µM; for `Nc1c(S(=O)(=O)c2ccccc2)nnn1-c1ccccc1`, > 30 µM (inactive).
Take `COc1ccc2[nH]c(C(=O)O)c(NS(=O)(=O)c3ccc(OC)c(OC)c3)c2c1`: the half-maximal activity concentration (AC50) is 6.63 µM.
For `COCCNc1nc(C)cc(-c2cc(C(=O)NC3CCCC3)on2)n1` the value was > 30 µM (inactive).
For `COc1ccc(NC2CC(=O)NC2=O)cc1` (stereo unspecified) the value was > 30 µM (inactive).
In the case of `S=C(NCc1ccccc1)NCc1ccc2c(c1)OCO2` it was 14.2 µM; in that of `CC(=O)Oc1cc2c3c(c1)/C(=C1/SC(=S)NC1=O)C(=O)N3C(C)(C)C=C2C`, > 30 µM (inactive).
As to `Nc1nc2n(n1)C(c1ccc(F)cc1)CC(c1ccc(F)cc1)N2` (stereo unspecified), the AC50 was > 30 µM (inactive).
For the compound `C[C@H](NC(=O)c1nc[nH]c1C(=O)NC1CCN(C(=O)OC(C)(C)C)CC1)C(=O)OC(C)(C)C`, the concentration at half-maximal activity (AC50) was 31.3 µM.
For `CCOC(=O)N1CCc2c(sc3nc4n(c(=O)c23)N=C(c2ccc(OC)cc2)CS4)C1` the value was > 30 µM (inactive); for `Cc1sc2nc(SCC(=O)Nc3ccc(S(=O)(=O)NCCCC(=O)O)cc3)[nH]c(=O)c2c1C`, 7.13 µM; for `CCCC(=O)Nc1nn(CC)c2nc3ccc(C)cc3cc12`, > 30 µM (inactive).
